“And” between values parts separate entries of the source, which are not always exact repeats. Identical values can stand only once.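 Values below derive from 48-hour exposures of cells grown in 96-well plates, with endpoints linearly interpolated between the two concentrations bracketing the appropriate inhibition level. GI50 marks 50% less growth. At the TGI there is no net growth.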
Experiments:
Test in all cases: NCI anticancer screen, dose series, 48 h
HS 578T breast = test system: HS 578T breast
LOX IMVI melanoma = test system: LOX IMVI melanoma
M14 melanoma = test system: M14 melanoma
SNB-75 CNS = test system: SNB-75 CNS
PC-3 prostate = test system: PC-3 prostate
UACC-62 melanoma = test system: UACC-62 melanoma
NCI-H23 lung = test system: NCI-H23 lung
TK-10 renal = test system: TK-10 renal
MDA-MB-231 breast = test system: MDA-MB-231 breast
HCT-116 colon = test system: HCT-116 colon
CAKI-1 renal = test system: CAKI-1 renal
IGROV1 ovarian = test system: IGROV1 ovarian
MDA-MB-435 = test system: MDA-MB-435
UO-31 renal = test system: UO-31 renal
OVCAR-8 ovarian = test system: OVCAR-8 ovarian
ACHN renal = test system: ACHN renal
BT-549 breast = test system: BT-549 breast
HL-60(TB) leukemia = test system: HL-60(TB) leukemia
NCI/ADR-RES ovarian = test system: NCI/ADR-RES ovarian
HOP-62 NSCLC = test system: HOP-62 NSCLC
MCF7 breast = test system: MCF7 breast
SN12C renal = test system: SN12C renal
T-47D breast = test system: T-47D breast
KM12 colon = test system: KM12 colon
UACC-257 melanoma = test system: UACC-257 melanoma
EKVX NSCLC = test system: EKVX NSCLC
SF-295 CNS = test system: SF-295 CNS
786-0 renal = test system: 786-0 renal
U251 CNS = test system: U251 CNS
DU-145 prostate = test system: DU-145 prostate
SK-MEL-2 melanoma = test system: SK-MEL-2 melanoma
A549 NSCLC = test system: A549 NSCLC
NCI-H522 lung = test system: NCI-H522 lung
HCC-2998 colon = test system: HCC-2998 colon
MOLT-4 leukemia = test system: MOLT-4 leukemia
SK-MEL-5 melanoma = test system: SK-MEL-5 melanoma
SR leukemia = test system: SR leukemia
SNB-19 CNS = test system: SNB-19 CNS
NCI-H226 lung = test system: NCI-H226 lung
OVCAR-5 ovarian = test system: OVCAR-5 ovarian
SK-OV-3 ovarian = test system: SK-OV-3 ovarian
A498 renal = test system: A498 renal
SK-MEL-28 melanoma = test system: SK-MEL-28 melanoma
HCT-15 colon = test system: HCT-15 colon
K-562 leukemia = test system: K-562 leukemia
NCI-H460 lung = test system: NCI-H460 lung
SF-268 CNS = test system: SF-268 CNS
SF-539 CNS = test system: SF-539 CNS
RPMI-8226 leukemia = test system: RPMI-8226 leukemia
MALME-3M melanoma = test system: MALME-3M melanoma
OVCAR-4 ovarian = test system: OVCAR-4 ovarian
SW-620 colon = test system: SW-620 colon
MDA-N = test system: MDA-N
RXF 393 renal = test system: RXF 393 renal
HT29 colon = test system: HT29 colon
OVCAR-3 ovarian = test system: OVCAR-3 ovarian
CCRF-CEM leukemia = test system: CCRF-CEM leukemia
HOP-92 NSCLC = test system: HOP-92 NSCLC

With `C/C(=N\NC(=S)N(C)C)c1ccccn1` the TGI (HS 578T breast) was 37.2 µM, the GI50 (LOX IMVI melanoma) was 0.00215 µM and the TGI (LOX IMVI melanoma) was 0.141 µM and 0.0176 µM. It also gave a GI50 (M14 melanoma) of 0.00884 µM, a TGI (M14 melanoma) of 11.5 µM and a TGI (SNB-75 CNS) of 14.4 µM. It also gave a GI50 (PC-3 prostate) of 0.132 µM, a TGI (PC-3 prostate) of 15.9 µM and a TGI (UACC-62 melanoma) of 2.38 µM. It also gave a TGI (NCI-H23 lung) of 18.7 µM, a GI50 (TK-10 renal) of 0.00279 µM and a TGI (TK-10 renal) of 10.7 µM. The GI50 (MDA-MB-231 breast) was 0.291 µM, the TGI (MDA-MB-231 breast) was 17.6 µM and the GI50 (HCT-116 colon) was 0.000123 µM. The GI50 (CAKI-1 renal) was 0.0567 µM, the TGI (CAKI-1 renal) was 12.5 µM and the GI50 (IGROV1 ovarian) was 0.00402 µM. It also gave a TGI (IGROV1 ovarian) of 4.66 µM, a GI50 (MDA-MB-435) of 0.00401 µM and a TGI (MDA-MB-435) of 18.5 µM. It also gave a GI50 (UO-31 renal) of 0.166 µM, a TGI (UO-31 renal) of 3.91 µM and a GI50 (OVCAR-8 ovarian) of 0.00318 µM. It also gave a TGI (OVCAR-8 ovarian) of 10.8 µM, a GI50 (ACHN renal) of 0.00151 µM and a TGI (ACHN renal) of 1.74 µM. It also gave a TGI (BT-549 breast) of 9.59 µM, a GI50 (HL-60(TB) leukemia) of 0.000325 µM and a GI50 (NCI/ADR-RES ovarian) of 0.000321 µM. For the same compound, the TGI (NCI/ADR-RES ovarian) was 2.31 µM, the GI50 (HOP-62 NSCLC) was 0.0203 µM and the TGI (HOP-62 NSCLC) was 12.4 µM. It also gave a TGI (MCF7 breast) of 13.4 µM, a GI50 (SN12C renal) of 0.0436 µM and a TGI (SN12C renal) of 11.2 µM. For the same compound, the TGI (T-47D breast) was 11.5 µM, the GI50 (KM12 colon) was 0.22 µM and the TGI (KM12 colon) was 20 µM. The GI50 (UACC-257 melanoma) was 0.000438 µM, the GI50 (EKVX NSCLC) was 0.143 µM and the TGI (EKVX NSCLC) was 3.07 µM. The GI50 (SF-295 CNS) was 0.012 µM, the TGI (SF-295 CNS) was 13.1 µM and the GI50 (786-0 renal) was 0.0154 µM. For the same compound, the TGI (786-0 renal) was 11.3 µM, the GI50 (U251 CNS) was 0.00245 µM and the TGI (U251 CNS) was 6.73 µM. For the same compound, the TGI (DU-145 prostate) was 0.993 µM and 3.17 µM, the GI50 (SK-MEL-2 melanoma) was 0.624 µM and the TGI (SK-MEL-2 melanoma) was 27.2 µM. It also gave a TGI (A549 NSCLC) of 14.3 µM, a TGI (NCI-H522 lung) of 1.98 µM and a TGI (HCC-2998 colon) of 15 µM. It also gave a GI50 (MOLT-4 leukemia) of 0.000297 µM, a TGI (MOLT-4 leukemia) of 2.12 µM and a GI50 (SK-MEL-5 melanoma) of 0.00143 µM. For the same compound, the GI50 (SR leukemia) was 0.00132 µM, the GI50 (SNB-19 CNS) was 0.011 µM and the TGI (SNB-19 CNS) was 16.3 µM. For the same compound, the GI50 (NCI-H226 lung) was 0.0645 µM, the TGI (NCI-H226 lung) was 5.1 µM and the TGI (OVCAR-5 ovarian) was 6.85 µM. For the same compound, the TGI (SK-OV-3 ovarian) was 0.889 µM, the TGI (A498 renal) was 8.11 µM and the TGI (SK-MEL-28 melanoma) was 20.6 µM. For the same compound, the GI50 (HCT-15 colon) was 0.00191 µM, the TGI (HCT-15 colon) was 16.6 µM and the GI50 (K-562 leukemia) was 0.000104 µM. It also gave a TGI (K-562 leukemia) of over 41.3 µM, a GI50 (NCI-H460 lung) of 0.0214 µM and a TGI (NCI-H460 lung) of 4.09 µM. For the same compound, the TGI (SF-268 CNS) was 11.7 µM, the GI50 (SF-539 CNS) was 0.0516 µM and the TGI (SF-539 CNS) was 2.77 µM. The GI50 (RPMI-8226 leukemia) was 0.000878 µM, the TGI (RPMI-8226 leukemia) was 31.9 µM and the GI50 (MALME-3M melanoma) was 0.00639 µM. It also gave a TGI (OVCAR-4 ovarian) of 10.4 µM, a TGI (SW-620 colon) of 35.4 µM and a GI50 (MDA-N) of 0.178 µM. The TGI (RXF 393 renal) was 13.4 µM, the GI50 (HT29 colon) was 0.000846 µM and the TGI (HT29 colon) was 15.8 µM. It also gave a GI50 (OVCAR-3 ovarian) of 0.000474 µM, a GI50 (CCRF-CEM leukemia) of 0.000277 µM and a TGI (CCRF-CEM leukemia) of 0.232 µM. The TGI (HOP-92 NSCLC) was 17.8 µM.
